# Source: patent publication US20250034216A1, “STEREOSELECTIVE COVALENT LIGANDS FOR ONCOGENIC AND IMMUNOLOGICAL PROTEINS” (The Scripps Research Institute, priority 2021, published 2025)
# Target: T1, ZBED4_C599 (Homo sapiens, UniProt O75132)
# T1 construct: endogenous in cells; host or cells: 22Rv1
# T1 sequence (O75132 1-1171): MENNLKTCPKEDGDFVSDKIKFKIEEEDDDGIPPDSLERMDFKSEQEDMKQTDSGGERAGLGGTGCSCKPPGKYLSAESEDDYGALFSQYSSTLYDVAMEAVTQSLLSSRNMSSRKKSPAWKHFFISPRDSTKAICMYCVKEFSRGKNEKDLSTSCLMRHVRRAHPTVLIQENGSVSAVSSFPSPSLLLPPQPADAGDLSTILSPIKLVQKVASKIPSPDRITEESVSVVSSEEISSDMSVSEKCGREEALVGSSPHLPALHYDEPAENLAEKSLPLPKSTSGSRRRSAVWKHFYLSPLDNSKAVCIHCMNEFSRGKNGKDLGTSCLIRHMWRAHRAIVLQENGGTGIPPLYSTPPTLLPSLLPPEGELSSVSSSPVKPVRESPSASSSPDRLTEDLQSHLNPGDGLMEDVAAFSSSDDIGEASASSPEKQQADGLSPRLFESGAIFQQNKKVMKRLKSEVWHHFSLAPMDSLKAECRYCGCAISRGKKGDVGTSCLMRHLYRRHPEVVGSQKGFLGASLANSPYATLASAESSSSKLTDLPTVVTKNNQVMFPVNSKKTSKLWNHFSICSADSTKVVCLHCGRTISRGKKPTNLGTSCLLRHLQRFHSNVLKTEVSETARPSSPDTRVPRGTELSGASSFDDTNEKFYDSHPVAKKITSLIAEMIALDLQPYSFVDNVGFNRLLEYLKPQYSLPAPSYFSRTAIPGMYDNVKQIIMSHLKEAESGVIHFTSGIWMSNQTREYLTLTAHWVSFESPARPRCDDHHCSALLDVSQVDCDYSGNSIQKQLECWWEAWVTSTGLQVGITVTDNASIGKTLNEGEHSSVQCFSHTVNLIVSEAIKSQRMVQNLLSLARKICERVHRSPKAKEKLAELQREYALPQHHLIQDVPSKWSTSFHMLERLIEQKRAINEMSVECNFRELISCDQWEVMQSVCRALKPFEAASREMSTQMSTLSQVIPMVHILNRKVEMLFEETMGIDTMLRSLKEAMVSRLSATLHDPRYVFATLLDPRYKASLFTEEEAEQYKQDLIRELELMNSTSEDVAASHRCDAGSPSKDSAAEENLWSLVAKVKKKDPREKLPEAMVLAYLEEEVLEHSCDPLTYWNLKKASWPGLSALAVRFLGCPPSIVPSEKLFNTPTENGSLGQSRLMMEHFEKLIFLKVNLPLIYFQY
# Experiment: IA-DTB cysteine engagement
# Format: binding
# Conditions: 22Rv1 cells, 20 μM probe, 1 h, relative to DMSO
# How it was run: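 In-situ probe treatment of cells; lysate 2 mg/mL, IA-DTB 1 h RT; MeOH/CHCl3 precipitation, DTT/iodoacetamide, trypsin; streptavidin enrichment; TMT labeling, high-pH fractionation. Ratio = TMT reporter intensity / mean DMSO channels, median-normalized.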
row,% engagement ZBED4_C599,Compound
1,83.5%,"C=CC(=O)N1C[C@H](c2ccc(Br)cc2)[C@H]1C(=O)Nc1cccc2cccnc12 [MY-3B, (2S,3S)-1-acryloyl-3-(4-bromophenyl)-N-(quinolin-8-yl)azetidine-2-carboxamide]"
2,39%,"C=CC(=O)N1C[C@H](c2ccc(Br)cc2)[C@@H]1C(=O)Nc1cccc2cccnc12 [MY-1B, (2R,3S)-1-acryloyl-3-(4-bromophenyl)-N-(quinolin-8-yl)azetidine-2-carboxamide]"
3,21%,"C=CC(=O)N1C[C@H](c2ccc(Br)cc2)[C@H]1C(=O)Nc1cccc2cccnc12 [MY-3A, (2S,3S)-1-acryloyl-3-(4-bromophenyl)-N-(quinolin-8-yl)azetidine-2-carboxamide]"
4,16%,"C=CC(=O)N1C[C@@H](c2ccc(Br)cc2)[C@H]1C(=O)Nc1cccc2cccnc12 [MY-1A, (2S,3R)-1-acryloyl-3-(4-bromophenyl)-N-(quinolin-8-yl)azetidine-2-carboxamide]"
